Reference: ChEMBL document CHEMBL4229350, “Antimicrobial activity and self-assembly behavior of antimicrobial peptide chensinin-1b with lipophilic alkyl tails” (Eur J Med Chem, 2018)
pIC50, pKd: −log10 of the molar value. In brackets after ≈: the same amount, converted by molar mass. Activity calls are given as the source filed them. The rule behind the calls is not given here. Peptide text beside a SMILES is read from it. * marks the point of attachment. Palmitoyl = CCCCCCCCCCCCCCCC(=O)*

Tests used:
Lipid bilayer [1] = assay: Induction of membrane permeabilization in calcein loaded LPS/PC/PG large unilamellar vesicles assessed as calcein leakage after 15 mins by fluorescence assay
Lipid bilayer [2] = assay: Induction of membrane permeabilization in calcein loaded PG/CL/PE large unilamellar vesicles assessed as calcein leakage at 6 uM after 15 mins by fluorescence assay relative to control
Lipid bilayer [3] = assay: Induction of membrane permeabilization in calcein loaded PG/CL large unilamellar vesicles assessed as calcein leakage at 6 uM after 15 mins by fluorescence assay relative to control
Lipid bilayer [4] = assay: Induction of membrane permeabilization in calcein loaded PG/CL/PE large unilamellar vesicles assessed as calcein leakage at 3 uM after 10 mins by fluorescence assay relative to control
Lipid bilayer [5] = assay: Induction of membrane permeabilization in calcein loaded PG/CL large unilamellar vesicles assessed as calcein leakage at 3 uM after 10 mins by fluorescence assay relative to control
Escherichia coli [6] = assay: Antimicrobial activity against Escherichia coli AS 1.349 assessed as induction of outer membrane permeabilization by measuring NPN uptake by fluorescence assay; assay type: functional, organism-based
Staphylococcus aureus [7] = assay: Antimicrobial activity against Staphylococcus aureus AS 1.72 assessed as induction of outer membrane permeabilization by measuring NPN uptake by fluorescence assay; assay type: functional, organism-based
Escherichia coli [8] = assay: Antimicrobial activity against Escherichia coli AS 1.349 assessed as induction of bacterial cytoplasmic membrane depolarization at 2 times MIC after 7 mins by diSC3-5 dye-based fluorescence assay; assay type: functional, organism-based
Staphylococcus aureus [9] = assay: Antimicrobial activity against Staphylococcus aureus AS 1.72 assessed as induction of bacterial cytoplasmic membrane depolarization at 2 times MIC after 6 mins by diSC3-5 dye-based fluorescence assay; assay type: functional, organism-based
[10] = Hemolytic activity against human erythrocytes after 1 hr; assay type: ADME, cell-based, Erythrocyte
MCF7 = assay: Cytotoxicity against human MCF7 cells assessed as reduction in cell viability after 1 hr by MTT assay; assay type: functional, cell-based; settings: MCF7, 1 h
A-375 = assay: Cytotoxicity against human A375 cells assessed as reduction in cell viability after 1 hr by MTT assay; assay type: functional, cell-based; settings: A-375, 1 h
HeLa = assay: Cytotoxicity against human HeLa cells assessed as reduction in cell viability after 1 hr by MTT assay; assay type: functional, cell-based
Enterococcus faecalis = assay: Antimicrobial activity against Enterococcus faecalis CGMCC 1.595 after 18 hrs by micro dilution method; assay type: functional; settings: CGMCC 1.595, 18 h
Enterococcus faecium = assay: Antimicrobial activity against Enterococcus faecium CGMCC 1.2334 after 18 hrs by micro dilution method; assay type: functional; settings: CGMCC 1.2334, 18 h
Lactococcus lactis = assay: Antimicrobial activity against Streptococcus lactis AS 1.1690 after 18 hrs by micro dilution method; assay type: functional; settings: AS 1.1690, 18 h
Bacillus cereus = assay: Antimicrobial activity against Bacillus cereus AS 1.126 after 18 hrs by micro dilution method; assay type: functional; settings: AS 1.126, 18 h
Staphylococcus aureus [11] = assay: Antimicrobial activity against Staphylococcus aureus AS 1.72 after 18 hrs by micro dilution method; assay type: functional; settings: AS 1.72, 18 h
Pseudomonas aeruginosa = assay: Antimicrobial activity against Pseudomonas aeruginosa CGMCC 1.860 after 18 hrs by micro dilution method; assay type: functional; settings: CGMCC 1.860, 18 h
Escherichia coli [12] = assay: Antimicrobial activity against Escherichia coli AS 1.349 after 18 hrs by micro dilution method; assay type: functional; settings: AS 1.349, 18 h
Lipid bilayer [13] = assay: Induction of membrane permeabilization in calcein loaded LPS/PC/PG large unilamellar vesicles assessed as calcein leakage at 50 uM after 15 mins by fluorescence assay relative to control
Lipid bilayer [14] = assay: Induction of membrane permeabilization in calcein loaded PC/cholesterol large unilamellar vesicles assessed as calcein leakage at 50 uM after 10 mins by fluorescence assay relative to control
Lipid bilayer [15] = assay: Induction of membrane permeabilization in PC/cholesterol large unilamellar vesicles assessed as blue shift by Tryptophan fluorescence spectroscopy
Lipid bilayer [16] = assay: Induction of membrane permeabilization in PG/CL/PE large unilamellar vesicles assessed as blue shift at compound to lipid ratio of 10 by Tryptophan fluorescence spectroscopy
Lipid bilayer [17] = assay: Induction of membrane permeabilization in PG/CL large unilamellar vesicles assessed as blue shift at compound to lipid ratio of 60 by Tryptophan fluorescence spectroscopy
U-937 [18] = assay: Antiinflammatory activity in human U937 cells assessed as inhibition of LPS-induced TNF-alpha production after 24 hrs by ELISA; assay type: functional, cell-based
U-937 [19] = assay: Antiinflammatory activity in human U937 cells assessed as inhibition of LPS-induced IL-6 production after 24 hrs by ELISA; assay type: functional, cell-based
U-937 [20] = assay: Antiinflammatory activity in human U937 cells assessed as inhibition of LPS-induced TNF-alpha production at 12.6 uM after 24 hrs by ELISA relative to control; assay type: functional; settings: U-937, 24 h
U-937 [21] = assay: Antiinflammatory activity in human U937 cells assessed as inhibition of LPS-induced TNF-alpha production at 6.25 uM after 24 hrs by ELISA relative to control; assay type: functional; settings: U-937, 24 h
U-937 [22] = assay: Antiinflammatory activity in human U937 cells assessed as inhibition of LPS-induced TNF-alpha production at 3.13 uM after 24 hrs by ELISA relative to control; assay type: functional; settings: U-937, 24 h
U-937 [23] = assay: Antiinflammatory activity in human U937 cells assessed as inhibition of LPS-induced IL-6 production at 12.6 uM after 24 hrs by ELISA relative to control; assay type: functional; settings: U-937, 24 h
U-937 [24] = assay: Antiinflammatory activity in human U937 cells assessed as inhibition of LPS-induced IL-6 production at 6.25 uM after 24 hrs by ELISA relative to control; assay type: functional; settings: U-937, 24 h
U-937 [25] = assay: Antiinflammatory activity in human U937 cells assessed as inhibition of LPS-induced IL-6 production at 3.13 uM after 24 hrs by ELISA relative to control; assay type: functional; settings: U-937, 24 h
[26] = Cytotoxicity against human U937 cells assessed as cell viability at 3.13 to 12.6 uM after 1 hr by MTT assay relative to control; assay type: cell-based, U-937; settings: read-out: Activity
Lipopolysaccharide (LPS) [27] = assay: Binding affinity to Escherichia coli 0111:B4 LPS assessed as equilibrium association constant by ITC method
Lipopolysaccharide (LPS) [28] = assay: Binding affinity to Escherichia coli 0111:B4 LPS by ITC method
Lipopolysaccharide (LPS) [29] = assay: Induction of LPS micelles disaggergation assessed as abundant particle size formation at 2 uM by DLS method
Lipopolysaccharide (LPS) [30] = assay: Induction of LPS micelles disaggergation assessed as small particle distribution at 2 uM by DLS method
[31] = Self-assembly property assessed as diameter of monodispersed micelles at 1 mg/ml at pH 7 by TEM analysis; assay type: physicochemical
[32] = Self-assembly property assessed as diameter of monodispersed micelles at 1 mg/ml at pH 2 by TEM analysis; assay type: physicochemical
[33] = Self-assembly property assessed as diameter of tightly packed nanofibers at 1 mg/ml at pH 2 by TEM analysis; assay type: physicochemical
[34] = Self-assembly property assessed as diameter of monodispersed micelles at 1 mg/ml at pH 7 by DLS method; assay type: physicochemical
[35] = Self-assembly property assessed as diameter of monodispersed micelles at 1 mg/ml at pH 2 by DLS method; assay type: physicochemical

## CCCCCCCCCCCCCCCC(=O)N[C@@H](CO)C(=O)N[C@@H](CCCCN)C(=O)N[C@H](C(=O)N[C@@H](Cc1c[nH]c2ccccc12)C(=O)N[C@@H](CCCNC(=N)N)C(=O)N[C@@H](Cc1cnc[nH]1)C(=O)N[C@@H](Cc1c[nH]c2ccccc12)C(=O)N[C@@H](CCCNC(=N)N)C(=O)N[C@@H](CCCNC(=N)N)C(=O)N[C@@H](Cc1ccccc1)C(=O)N[C@@H](Cc1c[nH]c2ccccc12)C(=O)N[C@@H](Cc1cnc[nH]1)C(=O)N[C@@H](CCCNC(=N)N)C(=O)N[C@@H](C)C(=O)N[C@@H](Cc1cnc[nH]1)C(=O)N[C@@H](CCCNC(=N)N)C(=O)N[C@@H](CCCCN)C(=O)N[C@@H](CC(C)C)C(=O)O)C(C)C (Palmitoyl-SKVWRHWRRFWHRAHRKL-OH)
Lipid bilayer [1]
  Activity: Dose-dependent effect
Lipid bilayer [2]
  Activity: 54%
Lipid bilayer [3]
  Activity: 80%
Lipid bilayer [4]
  Activity: 33%
Lipid bilayer [5]
  Activity: 46%
Escherichia coli [6]
  Activity: Dose-dependent effect
Staphylococcus aureus [7]
  Activity: Dose-dependent effect
Escherichia coli [8]
  Activity: Active
Staphylococcus aureus [9]
  Activity: Active
[10]
  HC50 at 1 h: > 500 µM
MCF7
  pIC50: 4.69
A-375
  pIC50: 4.74
HeLa
  pIC50: 4.68
Enterococcus faecalis
  MIC: 6.25 µM (≈ 17.4 µg/mL)
Enterococcus faecium
  MIC: 3.13 µM (≈ 8.71 µg/mL)
Lactococcus lactis
  MIC: 3.13 µM (≈ 8.71 µg/mL)
Bacillus cereus
  MIC: 6.25 µM (≈ 17.4 µg/mL)
Staphylococcus aureus [11]
  MIC: 12.5 µM (≈ 34.8 µg/mL)
Pseudomonas aeruginosa
  MIC: 6.25 µM (≈ 17.4 µg/mL)
Escherichia coli [12]
  MIC: 12.5 µM (≈ 34.8 µg/mL)
Lipid bilayer [13]
  Activity: 55%
Lipid bilayer [14]
  Activity: 20%
Lipid bilayer [15]
  Activity: inactive
Lipid bilayer [16]
  Activity: 14 nm
Lipid bilayer [17]
  Activity: 18 nm
U-937 [18]
  inhibition: Dose-dependent effect
U-937 [19]
  inhibition: Dose-dependent effect
U-937 [20]
  inhibition at 12.6 µM: 35%
U-937 [21]
  inhibition at 6.25 µM: 32%
U-937 [22]
  inhibition at 3.13 µM: 24%
U-937 [23]
  inhibition at 12.6 µM: 35%
U-937 [24]
  inhibition at 6.25 µM: 31%
U-937 [25]
  inhibition at 3.13 µM: 27%
[26]
  viability at 1 h, up to 12.6 µM: 80%
Lipopolysaccharide (LPS) [27]
  Ka: 114 mM⁻¹
Lipopolysaccharide (LPS) [28]
  pKd: 5.06
Lipopolysaccharide (LPS) [29]
  Activity: 100 nm
Lipopolysaccharide (LPS) [30]
  Activity: 400 nm
[31]
  Activity: 24 nm
[32]
  Activity: 5460 nm
[33]
  Activity: 200 nm

## H-SKVWRHWRRFWHRAHRKL-OH
Lipid bilayer [1]
  Activity: Dose-dependent effect
Escherichia coli [6]
  Activity: Dose-dependent effect
Staphylococcus aureus [7]
  Activity: Dose-dependent effect
Staphylococcus aureus [9]
  Activity: Active
[10]
  HC50 at 1 h: > 500 µM
MCF7
  pIC50: 4.29
A-375
  pIC50: < 3.90
HeLa
  pIC50: 3.95
Enterococcus faecalis
  MIC: 3.13 µM
Enterococcus faecium
  MIC: 1.56 µM
Lactococcus lactis
  MIC: 3.13 µM
Bacillus cereus
  MIC: 3.13 µM
Staphylococcus aureus [11]
  MIC: 3.13 µM
Pseudomonas aeruginosa
  MIC: 1.56 µM
Escherichia coli [12]
  MIC: 6.25 µM
Lipid bilayer [13]
  Activity: 62%
Lipid bilayer [14]
  Activity: 20%
[34]
  Activity: 60 nm
[35]
  Activity: 3990 nm
[31]
  Activity: 141 nm
